Experiment [1] addresses T1, αS fibrils, Site 2 ([^3H]Tg-190b) (Homo sapiens, UniProt P37840). Nature of the experiment: Competition binding assay with Site 2 radioligand [^3H]Tg-190b on αS fibrils. As to conditions: αS fibrils 100 nM, [^3H]Tg-190b 6 nM, 1 h 37 °C; 95% confidence intervals in parentheses in Table 1 (n = 3). On the procedure: (§1) Fig. S10 Screening of SAR Library Derived from Compound 6. Site 2 radioligand competition binding assays with [3H]Tg-190b. ANOVA was performed with Dunnett’s multiple comparisons test, where […]
(§2) *P<0.0332, **P<0.0021, ***P<0.0002 and ****P<0.0001.
(§3) Competition binding assay. αS fibrils (100 nM for Site 2 and 50 nM for Site 9) were mixed with Site 2 ligand [3H]Tg-190b (6 nM) or Site 9 ligand [3H]BF2846 (3 nM) and varying concentrations of unlabeled compounds 2, 6, 24, 28, 31, 39, 40, or 52. Compounds were diluted in 50 mM Tris-HCl buffer (pH 7.4) and mixed with fibrils and radioligand in a total volume of 150 µL. Total binding was measured in the absence of competitor and nonspecific binding was determined in reactions containing unlabeled Tg-190b (1 µM) or BF2846 (0.5 µM). In a duplicate set of binding […]
(§4) binding to the filter paper. Reactions were incubated at 37 °C for 1 h. After incubation, bound […]
(§5) Filters containing the bound ligand were mixed with 3 mL of scintillation cocktail (MicroScint-20, PerkinElmer) and counted after 12 h of incubation on a MicroBeta System (PerkinElmer). All data points were acquired in triplicate.
(§6) (1 picture or pasted object on this page, not shown here)
(§7) The measured cpm values were converted to % specific binding as described by the equation […]
(§8) % specific binding = !"#$"#% "# ’() *+),)#-) ./ -.0*)’"’.+1#.#,*)-"/"- !"#$"#% ∗ 100 ’.’23 !"#$"#%1#.#,*)-"/"- !"#$"#%
(§9) IC50 values were calculated by fitting the data to Equation S1 below by non-linear regression, using GraphPad Prism software:
(§10) Y = Bottom + (Top-Bottom) / (1+ 10(813.%9:;<)) (S1) where logIC50 is the log of the concentration of competitor that results in binding half-way between Bottom and Top; Top and Bottom are plateaus in the units of Y axis; they are binding observed in the absence of competitor and in the presence of a maximal concentration of competitor, respectively. Binding curves for compounds 2 and 6 are shown in Fig. 2 in the main text and for compounds 6, 24, 28, 31, 39, 40, and 52 in Figs. S11 and S12.

Experiment [2] has as its target αS fibrils, Site 9 ([^3H]BF2846) (Homo sapiens, UniProt P37840). The experiment in a line: Competition binding assay with Site 9 radioligand [^3H]BF2846 on αS fibrils. As to conditions: αS fibrils 50 nM, [^3H]BF2846 3 nM, 1 h 37 °C; 95% confidence intervals in parentheses (n = 3). On the procedure: as §1, §2, §3, §4, §5, §6, §7, §8, §9, §10
The target of experiment [3] is T2, αS fibrils (Homo sapiens, UniProt P37840). Nature of the experiment: αS fibril disaggregation (stability) fluorescence polarization experiment. Format: biochemical. To be noted: 10 μM labeled fibrils; compound 6 at 10 and 100 μM, EGCG and NDGA at 100 μM. The method, then:
(§11) Fluorescence Polarization and Photo -Crosslinking Assays
(§12) Aggregation and disaggregation fluorescence polarization experiments. Wild-type and αS with a fluorescein maleimide attached via Cys114 mutation were produced as previously described.10 Aggregations were performed at a total monomer concentration of 100 μM with 1% labeled αS in 20 mM Tris, 100 NaCl pH 7.4 in the presence of 10 and 100 μM compound 6 and with equivalent volume of DMSO as a control. At each timepoint, an aliquot of the fibrilization reaction was removed and diluted 10-fold in buffer. Fluorescence polarization (FP) was measured in a Greiner black 96 half-area well microplate (Greiner Bio-One North America Inc.; Monroe, NC, USA) at a total volume of 50 μL on a Tecan F200 plate reader (San Jose, CA, USA).
Aggregations were performed in triplicate.
Disaggregation experiments were performed on labeled fibril samples prepared as described above in the absence of compound. A final concentration of 10 μM fibrils was added to each well for each disaggregation experiment and compound 6, nordihydroguaiaretic acid (NDGA), epigallocatechin gallate (EGCG) or DMSO (1%) was added just prior to measurement to the final concentrations detailed in Fig. S3 and total volumes of 50 μL. Samples were shaken at 149 rpm at room temperature with FP measurements taken every 150 s. EGCG and NDGA […]
Fig. S5 Impact of Compound 6 on αS Fibril Stability. Assessment of potential remodeling of 1% labeled αS fibrils by (light-green) 10 and (dark-green) 100 μM compound 6 compared to (red) 100 μM EGCG and (blue) 100 μM NDGA as a positive control. DMSO administration volume-matched to that used for (grey) 10 and (black) 100 μM compound administration was used as a negative control. […]

For experiment [4], the target named is T1, αS fibrils, Site 2 ([^3H]Tg-190b). The experiment in a line: Single-concentration radioligand competition screen (100 nM compound) against [^3H]Tg-190b. It is filed as binding. As to conditions: 100 nM αS fibrils, [^3H]Tg-190b 6 nM. The method, then:
Compounds 1–17 were purchased from vendors that were listed on the ZINC15 compound library. […] Total binding was measured in the absence of competitor and nonspecific binding was determined in reactions containing unlabeled Tg-190b (1 μM) or BF2846 (0.5 μM). […] Filters containing the bound ligand were mixed with 3 mL of scintillation cocktail (MicroScint-20, PerkinElmer, Inc.) and counted after 12 h of incubation on a MicroBeta System (PerkinElmer, Inc.). All data points were measured in triplicate. Screening of compounds 18–56 for the SAR study was performed in a similar fashion.
In Vitro Radioligand Binding Assays
Screening compound library. Compounds 1-17 (Fig. S8) were purchased from vendors that were listed on the ZINC15 compound library. 3 Compounds were screened for αS binding and after identifying the lead compound, 6, the core structure of compound 6 and its pyrazole or oxadiazole derivatives were used for similarity search on the Mcule, Inc. website.12 The similarity threshold was set to higher than 0.8, then compound 18-56 (Fig. S9) were chosen and ordered from the four companies mentioned above.
In order to screen the purchased compounds for αS binding, 100 nM solutions of each compound (1-56) were incubated for 1 hour at 37 °C with 100 nM αS fibrils and [3H]Tg-190b (6 nM) or [3H]BF2846 (3 nM) in 50 mM Tris-HCl, pH 7.4. Total binding was measured in the absence of competitor and nonspecific binding was determined in reactions containing unlabeled Tg-190b (1 µM) or BF2846 (0.5 µM). After incubation, bound and free radioligand were […]
scintillation cocktail (MicroScint-20, PerkinElmer; Waltham, MA, USA) and counted after 12 h of incubation on a MicroBeta System (PerkinElmer). All data points were acquired in triplicate.
Percentage of bound radioligand relative to total binding was plotted and data was analyzed by One-Way ANOVA, comparing the mean of each data set to the mean of total binding. […]
are shown in Fig. 2 in the main text, and Fig. S8 and S10.
In general terms: Displacement assays read how much labelled ligand stays bound in the presence of the test substance.

Another experiment deals with αS aggregation (Homo sapiens, UniProt P37840). Nature of the experiment: αS aggregation fluorescence polarization experiment. Format: biochemical. As to conditions: 10 and 100 μM compound, 100 μM αS monomer with 1% labeled αS. The method, then:
as §11, §12
Aggregations were performed in triplicate. […]
Fig. S4 Impact of Compound 6 on αS Aggregation. Aggregation of αS in the presence of 1% labeled monomer along with (light-green) 10 and (dark-green) 100 μM compound 6 monitored by (a) fluorescence polarization (FP) and (b) Congo Red absorbance. Aggregation in the presence of compound was compared to aggregation in the presence of volume matched addition of DMSO for (grey) 10 and (black) 100 μM […]
10 and (black) 100 μM compound administration was used as a negative control. […]
On the technique in general: In fluorescence polarisation assays a small probe gives low polarisation when free and higher when bound to something large.

For experiment [5], the target named is T2, αS fibrils.
Experimental: αS (50 nM) or Aβ42 (100 nM) fibrils were incubated for 1 h at 37 °C with increasing concentrations of [^125I]61 in 50 mM Tris–HCl, pH 7.4, in a total volume of 150 μL. Nonspecific binding was determined in a duplicate set of binding reactions containing 2 μM non-radioactive 61. After incubation, bound and free radioligand were separated by vacuum filtration through Whatman GF/C filters in a 24-sample harvester system, followed by washing with buffer containing 10 mM Tris–HCl (pH 7.4) and 150 mM NaCl. Filters containing the bound ligand were counted immediately on 2470 WIZARD Automatic Gamma Counter. All data points were collected in triplicate. The equilibrium dissociation constant (Kd) and the maximal number of binding sites (Bmax) were determined by fitting the data to the equation Y = Bmax × X/(Kd + X), using GraphPad Prism software.
Saturation binding assay. αS (50 nM) or Ab42 (100 nM) fibrils were incubated for 1 h at 37 °C
with increasing concentrations of [125I]61 in 50 mM Tris-HCl, pH 7.4, in a total volume of 150
µL. Nonspecific binding was determined in a duplicate set of binding reactions containing 2 µM
unlabeled 61. To measure the amount of radioligand binding to the filter paper, fibrils were
replaced with equal volume of buffer in a duplicate set of binding reactions. After incubation,
bound and free radioligand were separated by vacuum filtration through Whatman GF/C filters
(Brandel) in a 24-sample harvester system (Brandel), followed by washing with buffer containing
10 mM Tris-HCl (pH 7.4) and 150 mM NaCl. Filters containing the bound ligand were counted
immediately on 2470 WIZARD Automatic Gamma Counter (Perkin Elmer). All data points were
acquired in triplicate. The equilibrium dissociation constant (Kd) and the maximal number of
binding sites (Bmax) were determined by globally fitting the total binding and nonspecific binding
Y = Bmax*[X/(Kd+X)] + NS*X (S2)
where X is the concentration of ligand ([125I]61) and NS is nonspecific binding, using GraphPad
Prism software (San Diego, CA, USA).

“Also recorded” adds a separate entry of the source. Where only a bound is given, the exact number is not on record here.

One may read the IC50 as the point on the concentration scale where inhibition reaches its midpoint. Take `Cc1ccc(N2CCN(c3cnn(-c4ccccc4)c(=O)c3Cl)CC2)cc1C` [Compound 2]: the IC50 in experiment [1] was determined as 490 nM.
`Cc1ccc(OCC(=O)Nc2cc(-c3ccc(F)cc3)no2)cc1C` [Compound 6]: the IC50 was found to be 109 nM in experiment [2] and 9.49 nM in experiment [1]. In addition, the “Effect on stability of αS fibrils” value on αS fibrils [3] is on record as “no apparent effect; also recorded: did not show any significant effect”. Besides, in experiment [4], the “Binding in Site 2 radioligand competition screen (in words)” value (shortened to “Binding”) is listed as “high affinity”. The “Effect on rate of αS aggregation” value at αS aggregation was “No significant effect; also recorded: did not show any significant effect”.
As to `COc1ccc(OCC(=O)Nc2cc(-c3ccc(C)cc3)no2)cc1` [Compound 19], the “Binding” value in experiment [4] was “moderate to strong binding”.
For `CC(Oc1ccc(F)cc1)C(=O)Nc1cc(-c2ccccc2)no1` (stereo not drawn) [Compound 23], the “Binding” value in experiment [4] was “bind poorly”.
With `COc1ccc(OCC(=O)Nc2cc(-c3ccccc3)no2)cc1` [Compound 24], the results for the IC50 in experiment [2] and in experiment [1] were 557 nM and 95.1 nM, respectively. The “Binding” value in experiment [4] is on record as “moderate to strong binding”.
`O=C(COc1ccc(F)cc1)Nc1cc(-c2ccccc2)no1` [Compound 25]: the “Binding” value in experiment [4] was “weak binders”.
`COc1ccccc1OCC(=O)Nc1cc(-c2ccccc2)no1` [Compound 27]: in experiment [4], the “Binding” value is listed as “hinder binding”.
`Cc1ccc(OCC(=O)Nc2cc(-c3ccc(Br)cc3)no2)cc1C` [Compound 28]: in experiment [2], the IC50 worked out at 12.6 nM. In addition, in experiment [4], the “Binding” value is “moderate to strong binding”.
On to `COc1ccc(OCC(=O)Nc2cc(-c3ccc(Br)cc3)no2)cc1` [Compound 31], for which the figures for the IC50 in experiment [2] and in experiment [1] were 37 nM and 68.7 nM, respectively. For the same compound, the “Binding” value in experiment [4] is given as “moderate to strong binding”.
As for `COc1ccc(OCC(=O)Nc2cc(-c3ccc(F)cc3)no2)cc1` [Compound 34], the “Binding” value in experiment [4] was “moderate to strong binding”.
As to `COc1ccc(OCC(=O)Nc2cc(-c3ccc(F)c(F)c3)no2)cc1` [Compound 39], the values for the IC50 in experiment [2] and in experiment [1] were more than 1000 nM and 95.7 nM, respectively. Moreover, the “Binding” value in experiment [4] was “moderate to strong binding”.
Taken in the same sequence, the figures for `Cc1ccc(OCC(=O)Nc2cc(-c3ccc(F)c(F)c3)no2)cc1C` [Compound 40] were more than 1000 nM, 19.6 nM and “moderate to strong binding”.
For the compound `COc1ccc(OCC(=O)Nc2noc(-c3ccccc3)n2)cc1` [Compound 48], the “Binding” value in experiment [4] was “bound more poorly than the corresponding isoxazole compound”.
Turning to `O=C(COc1ccc(F)cc1)Nc1noc(-c2ccccc2)n1` [Compound 50], in experiment [4], the “Binding” value is listed as “bound more poorly than the corresponding isoxazole compound; also recorded: weak binders”.
Still for that read-out and setting: as for `O=C(COc1ccccc1)Nc1noc(-c2ccccc2)n1` [Compound 51], the entry is “bound more poorly than the corresponding isoxazole compound”.
With `Cc1ccc(OCC(=O)Nc2cc(-c3ccccc3)no2)cc1C` [Compound 52], the IC50 in experiment [2] was more than 1000 nM; in experiment [1] it was 30.7 nM. Further, in experiment [4], the “Binding” value is recorded as “moderate to strong binding”.
`O=C(COc1ccc(F)cc1)Nc1cc(-c2ccccc2)n[nH]1` [Compound 55]: in experiment [4], the “Binding” value is reported as “moderate affinity”.
Broadly, the Kd is the free concentration of one partner at which half of the binding sites on the other are occupied at equilibrium, for simple one-to-one binding. A high value points to a looser complex. On αS fibrils [5], `Cc1ccc(OCC(=O)Nc2cc(-c3ccc(I)cc3)no2)cc1C` [Compound 61] returned a Kd of 1 nM. Further, the “Selectivity for αS fibrils over amyloid β (Aβ42 fibrils)” value at αS fibrils [5] (from saturation binding Kd values) is reported as approximately 5 fold.
Turning to `O=C(O[C@@H]1Cc2c(O)cc(O)cc2O[C@@H]1c1cc(O)c(O)c(O)c1)c1cc(O)c(O)c(O)c1` [EGCG, epigallocatechin gallate, reference compound], the “Effect on stability of αS fibrils” value at αS fibrils [3] is listed as “disrupted fibril stability”.
With `CC(Cc1ccc(O)c(O)c1)C(C)Cc1ccc(O)c(O)c1` (stereo not drawn) [NDGA, nordihydroguaiaretic acid, reference compound], the “Effect on stability of αS fibrils” value on αS fibrils [3] is given as “disrupted fibril stability”.

Values taken from article PMC8047729, “Identification of a nanomolar affinity α-synuclein fibril imaging probe by ultra-high throughput in silico screening” (Chemical Science, 2020).
